Results taken from ChEMBL document CHEMBL1201862, “PubChem BioAssay data set” (2004).
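Dose response: 5 concentrations. Exposure: 48 h. Format: 96-well plates. Endpoint: linear interpolation; highest concentration if not reached. Here, GI50 denotes the concentration required for 50% inhibition of growth.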 Activity calls are given as the source filed them. No stated cut-off is given here; in the data, active = GI50 up to about 1.1 µM and inactive = higher.

Assays:
Test in all cases: inhibition of tumour cell growth, NCI panel, 48 h
HOP-92 = test system: HOP-92
IGROV-1 = test system: IGROV-1
Hs-578T = test system: Hs-578T
DU-145 = test system: DU-145
HCT-15 = test system: HCT-15
SNB-75 = test system: SNB-75
NCI/ADR-RES = test system: NCI/ADR-RES
LOX IMVI = test system: LOX IMVI
K562 = test system: K562
SN12C = test system: SN12C
CAKI-1 = test system: CAKI-1
A549 = test system: A549
T47D = test system: T47D
OVCAR-3 = test system: OVCAR-3
NCI-H522 = test system: NCI-H522
SK-OV-3 = test system: SK-OV-3
CCRF-CEM = test system: CCRF-CEM
RXF 393 = test system: RXF 393
SR = test system: SR
TK-10 = test system: TK-10
EKVX = test system: EKVX
NCI-H23 = test system: NCI-H23
BT-549 = test system: BT-549
MOLT-4 = test system: MOLT-4
OVCAR-8 = test system: OVCAR-8
SF-539 = test system: SF-539
Malme-3M = test system: Malme-3M
SK-MEL-28 = test system: SK-MEL-28
SF-268 = test system: SF-268
SNB-19 = test system: SNB-19
KM12 = test system: KM12
NCI-H226 = test system: NCI-H226
SW-620 = test system: SW-620
OVCAR-5 = test system: OVCAR-5
MDA-MB-231 = test system: MDA-MB-231
OVCAR-4 = test system: OVCAR-4
UACC-62 = test system: UACC-62
M14 = test system: M14
UO-31 = test system: UO-31
MDA-MB-435 = test system: MDA-MB-435
NCI-H460 = test system: NCI-H460
A498 = test system: A498
HOP-62 = test system: HOP-62
MCF7 = test system: MCF7
RPMI-8226 = test system: RPMI-8226
SK-MEL-2 = test system: SK-MEL-2
UACC-257 = test system: UACC-257
786-0 = test system: 786-0
HCC 2998 = test system: HCC 2998
SF-295 = test system: SF-295
COLO 205 = test system: COLO 205
HL-60 = test system: HL-60
PC-3 = test system: PC-3
SK-MEL-5 = test system: SK-MEL-5
ACHN = test system: ACHN
U-251 = test system: U-251
HCT-116 = test system: HCT-116
HT-29 = test system: HT-29

CN(C)Cc1c(O)ccc2c1c1c(n2C)C(=O)c2ccccc2C1=O was tested, and the GI50 (HOP-92) was 12.6 µM (inactive), the GI50 (IGROV-1) was 3.73 µM (inactive) and the GI50 (Hs-578T) was 18.7 µM (inactive). The GI50 (DU-145) was 3.75 µM (inactive), the GI50 (HCT-15) was 4.49 µM and the GI50 (SNB-75) was 12.3 µM (inactive). The GI50 (NCI/ADR-RES) was 2.73 µM (inactive), the GI50 (LOX IMVI) was 1.79 µM (inactive) and the GI50 (K562) was 3.12 µM (inactive). For the same compound, the GI50 (SN12C) was 3.62 µM (inactive), the GI50 (CAKI-1) was 4.52 µM (inactive) and the GI50 (A549) was 2.51 µM (inactive). For the same compound, the GI50 (T47D) was 11.7 µM (inactive), the GI50 (OVCAR-3) was 4.75 µM (inactive) and the GI50 (NCI-H522) was 3.95 µM (inactive). The GI50 (SK-OV-3) was 20.2 µM (inactive), the GI50 (CCRF-CEM) was 0.492 µM (active) and the GI50 (RXF 393) was 12.4 µM (inactive). The GI50 (SR) was 1.06 µM (active), the GI50 (TK-10) was 7.41 µM (inactive) and the GI50 (EKVX) was 13.5 µM (inactive). The GI50 (NCI-H23) was 5.12 µM (inactive), the GI50 (BT-549) was 11.5 µM (inactive) and the GI50 (MOLT-4) was 0.544 µM (active). The GI50 (OVCAR-8) was 5.46 µM (inactive), the GI50 (SF-539) was 10.3 µM (inactive) and the GI50 (Malme-3M) was 3.72 µM (inactive). The GI50 (SK-MEL-28) was 4.69 µM (inactive), the GI50 (SF-268) was 7.85 µM (inactive) and the GI50 (SNB-19) was 6.19 µM (inactive). For the same compound, the GI50 (KM12) was 3.2 µM (inactive), the GI50 (NCI-H226) was 11 µM (inactive) and the GI50 (SW-620) was 4.72 µM (inactive). The GI50 (OVCAR-5) was 4.16 µM (inactive), the GI50 (MDA-MB-231) was 7.8 µM (inactive) and the GI50 (OVCAR-4) was 4.28 µM (inactive). For the same compound, the GI50 (UACC-62) was 3.55 µM (inactive), the GI50 (M14) was 11.2 µM (inactive) and the GI50 (UO-31) was 4.01 µM (inactive). The GI50 (MDA-MB-435) was 4.35 µM (inactive), the GI50 (NCI-H460) was 1.85 µM (inactive) and the GI50 (A498) was 4.43 µM (inactive). The GI50 (HOP-62) was 15.1 µM (inactive), the GI50 (MCF7) was 5.86 µM (inactive) and the GI50 (RPMI-8226) was 2.67 µM (inactive). For the same compound, the GI50 (SK-MEL-2) was 5.31 µM (inactive), the GI50 (UACC-257) was 5.24 µM (inactive) and the GI50 (786-0) was 7.21 µM (inactive). The GI50 (HCC 2998) was 3.45 µM (inactive), the GI50 (SF-295) was 6.17 µM (inactive) and the GI50 (COLO 205) was 6.76 µM (inactive). The GI50 (HL-60) was 7.38 µM (inactive), the GI50 (PC-3) was 3.9 µM (inactive) and the GI50 (SK-MEL-5) was 6.49 µM (inactive). For the same compound, the GI50 (ACHN) was 2.31 µM (inactive), the GI50 (U-251) was 4.52 µM (inactive) and the GI50 (HCT-116) was 9.95 µM (inactive). For the same compound, the GI50 (HT-29) was 1.4 µM (inactive).

For c1ccc(CSc2nc(N3CCOCC3)c3cn[nH]c3n2)cc1, the GI50 (HOP-92) was 0.237 µM (active), the GI50 (IGROV-1) was 10.2 µM (inactive) and the GI50 (Hs-578T) was 13.2 µM (inactive). For the same compound, the GI50 (DU-145) was 26.2 µM (inactive), the GI50 (HCT-15) was 25.8 µM and the GI50 (SNB-75) was 30.4 µM (inactive). For the same compound, the GI50 (NCI/ADR-RES) was 15.2 µM (inactive), the GI50 (LOX IMVI) was 15.4 µM (inactive) and the GI50 (K562) was 16.2 µM (inactive). For the same compound, the GI50 (SN12C) was 13.4 µM (inactive), the GI50 (CAKI-1) was 9.18 µM (inactive) and the GI50 (A549) was 22.8 µM (inactive). The GI50 (T47D) was 15.6 µM (inactive), the GI50 (OVCAR-3) was 27.7 µM (inactive) and the GI50 (NCI-H522) was 15.6 µM (inactive). The GI50 (SK-OV-3) was 25 µM (inactive), the GI50 (CCRF-CEM) was 0.0438 µM (active) and the GI50 (RXF 393) was 6.1 µM (inactive). The GI50 (SR) was 10.5 µM (inactive), the GI50 (TK-10) was 18.5 µM (inactive) and the GI50 (EKVX) was 16.4 µM (inactive). The GI50 (NCI-H23) was 49.2 µM (inactive), the GI50 (BT-549) was 11.7 µM (inactive) and the GI50 (MOLT-4) was 22.2 µM (inactive). The GI50 (OVCAR-8) was 18.4 µM (inactive), the GI50 (SF-539) was 21 µM (inactive) and the GI50 (Malme-3M) was 14.1 µM (inactive). The GI50 (SK-MEL-28) was 19.1 µM (inactive), the GI50 (SF-268) was 20.4 µM (inactive) and the GI50 (SNB-19) was 24.7 µM (inactive). The GI50 (KM12) was 13.3 µM (inactive), the GI50 (NCI-H226) was 17 µM (inactive) and the GI50 (SW-620) was 25.9 µM (inactive). The GI50 (OVCAR-5) was 22.3 µM (inactive), the GI50 (MDA-MB-231) was 17 µM (inactive) and the GI50 (OVCAR-4) was 40.7 µM (inactive). The GI50 (UACC-62) was 11.4 µM (inactive), the GI50 (M14) was 23.6 µM (inactive) and the GI50 (UO-31) was 11.6 µM (inactive). For the same compound, the GI50 (MDA-MB-435) was 17.5 µM (inactive), the GI50 (NCI-H460) was 17.8 µM (inactive) and the GI50 (A498) was 5.71 µM (inactive). The GI50 (HOP-62) was 27 µM (inactive), the GI50 (MCF7) was 23.1 µM (inactive) and the GI50 (RPMI-8226) was 7.85 µM (inactive). For the same compound, the GI50 (SK-MEL-2) was 16.6 µM (inactive), the GI50 (UACC-257) was 15 µM (inactive) and the GI50 (786-0) was 37.7 µM (inactive). For the same compound, the GI50 (HCC 2998) was 23.6 µM (inactive), the GI50 (SF-295) was 24.4 µM (inactive) and the GI50 (COLO 205) was 12.6 µM (inactive). For the same compound, the GI50 (HL-60) was 36.6 µM (inactive), the GI50 (PC-3) was 13.4 µM (inactive) and the GI50 (SK-MEL-5) was 15.8 µM (inactive). The GI50 (ACHN) was 17.2 µM (inactive), the GI50 (U-251) was 20.5 µM (inactive) and the GI50 (HCT-116) was 30.5 µM (inactive). For the same compound, the GI50 (HT-29) was 30.8 µM (inactive).
